Source: patent US20240041042A1, “1-(PYRIDYL)-5-AZINYLPYRAZOLE DERIVATIVES, AND THEIR USE FOR CONTROL OF UNDESIRED PLANT GROWTH” (Bayer Aktiengesellschaft, priority 2020, published 2024)
Like-named read-outs stand apart in the source and are kept apart here.

Legend:
Format in all cases: in vivo
Setaria viridis (SETVI) [1] = test: Pre-emergence herbicidal action against SETVI; details: dosage 320 g/ha
In short: (§1)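 Herbicide applied to soil before seedling emergence, at 600 l/ha spray volume with 0.5% additive and rates up to 320 g/ha. Evaluation: visual percentage effect, about 3 weeks later, greenhouse-grown pots compared with untreated ones.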

[2] = test system: Polygonum convolvulus (POLCO); test: Post-emergence herbicidal action against POLCO; details: dosage 320 g/ha
In short: (§2)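 Greenhouse plants sprayed at the one-leaf stage, 2–3 weeks after sowing, with WP or EC formulations plus 0.5% additive at 600 l/ha water. Activity rated visually after about 3 weeks versus untreated controls (100% = dead, 0% = like control), at 320 g/ha or lower.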

Avena fatua (AVEFA) = test: Post-emergence herbicidal action against AVEFA; details: 320 g/ha, visual rating about 3 weeks after treatment
In short: as §2

[3] = test system: Abutilon theophrasti (ABUTH); test: Pre-emergence herbicidal action against ABUTH; details: Dosage column 320 g/ha (title prints 3200 g/ha); scored visually after about 3 weeks; 100% = plants have died
In short: as §1

Oryza sativa (ORYSA) [4] = details: crop plant compatibility, effect in comparison to untreated controls
In short: (§3)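 Foliar application at the one-leaf stage: WP/EC formulation, 0.5% additive, 600 l/ha water. Greenhouse-grown in sandy loam. Endpoint is visual % injury relative to untreated controls at about 3 weeks.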

[5] = test system: Echinochloa crus-galli (ECHCG); test: Post-emergence herbicidal action against ECHCG; details: dosage 320 g/ha
In short: as §2

[6] = test system: Triticum aestivum (TRZAS); details: pre-emergence, 80 g/ha, crop plant compatibility, in comparison to untreated controls
In short: (§4)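 Scoring: visual, % of untreated control, about 3 weeks after a pre-emergence application to the soil surface. Application used WP or EC formulations diluted in water with 0.5% additive at 600 l/ha; dosage levels are marked by suffixes a, b and c.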

Zea mays (ZEAMX) [7] = details: pre-emergence, crop plant compatibility, in comparison to untreated controls
In short: as §4

Glycine max (GLXMA) = details: pre-emergence, crop plant compatibility, in comparison to untreated controls
In short: as §4

Oryza sativa (ORYSA) [8] = details: pre-emergence, crop plant compatibility, in comparison to untreated controls
In short: as §4

Viola tricolor (VIOTR) = test: Pre-emergence herbicidal action against VIOTR; details: 320 g/ha, Viola tricolor
In short: as §1

Lolium rigidum (LOLRI) [9] = test: Pre-emergence herbicidal action against LOLRI; details: dosage 320 g/ha
In short: as §1

[10] = test system: Amaranthus retroflexus (AMARE); test: Pre-emergence herbicidal action against AMARE; details: 320 g/ha, visual scoring after about 3 weeks vs untreated controls
In short: as §1

[11] = test system: Amaranthus retroflexus (AMARE); test: Post-emergence herbicidal action against AMARE
In short: as §2

[12] = test system: Pharbitis purpurea (PHBPU); test: Post-emergence herbicidal action against PHBPU; details: dosage 320 g/ha
In short: as §2

[13] = test system: Triticum aestivum (TRZAS); details: crop plant compatibility, 80 g/ha, effect vs untreated controls
In short: as §3

Zea mays (ZEAMX) [14] = details: crop plant compatibility, effect vs untreated controls
In short: as §3

Brassica napus (BRSNW) = details: crop plant compatibility, in comparison to untreated controls
In short: as §4

Setaria viridis (SETVI) [15] = test: Post-emergence herbicidal action against SETVI; details: dosage 320 g/ha
In short: as §2

Lolium rigidum (LOLRI) [16] = test: Post-emergence herbicidal action against LOLRI; details: dosage 320 g/ha
In short: as §2

[17] = 320 g/ha, visual rating about 3 weeks after treatment

| Post-emergence action against ORYSA in % (Oryza sativa (ORYSA) [4]; 80 g/ha) | Post-emergence action against ORYSA in % (Oryza sativa (ORYSA) [4]; 320 g/ha) | Pre-emergence action against ZEAMX in % (Zea mays (ZEAMX) [7]; 80 g/ha) | Pre-emergence action against GLXMA in % (Glycine max (GLXMA); 80 g/ha) | Pre-emergence action against ORYSA in % (Oryza sativa (ORYSA) [8]; 80 g/ha) | Post-emergence action against TRZAS in % [13] | Post-emergence action against ZEAMX in % (Zea mays (ZEAMX) [14]; 80 g/ha) | Post-emergence action against ZEAMX in % (Zea mays (ZEAMX) [14]; 320 g/ha) | Pre-emergence action against ZEAMX in % (Zea mays (ZEAMX) [7]; 320 g/ha) | Pre-emergence action against BRSNW in % (Brassica napus (BRSNW); 80 g/ha) | Pre-emergence action against BRSNW in % (Brassica napus (BRSNW); 320 g/ha) | Pre-emergence action against ORYSA in % (Oryza sativa (ORYSA) [8]; 320 g/ha) | SMILES | Post-emergence action against ECHCG in % [5] | Post-emergence action against AMARE in % [11, 17] | Post-emergence action against PHBPU in % [12] | also measured |
| --- | --- | --- | --- | --- | --- | --- | --- | --- | --- | --- | --- | --- | --- | --- | --- | --- |
| 0% | 0% | 0% | 20% | 0% | – | – | – | – | – | – | – | O=C(COc1nn(-c2ccccn2)c(-c2ccc(F)nc2)c1Br)NS(=O)(=O)CC(F)(F)F [Example I-60] | 80% | 80% | – | Pre-emergence action against SETVI in % (Setaria viridis (SETVI) [1]): 80%; Post-emergence action against POLCO in % [2]: 80%; Post-emergence action against AVEFA in % (Avena fatua (AVEFA)): 90%; Pre-emergence action against ABUTH [3]: 80%; Pre-emergence action against TRZAS in % [6]: 0%; Pre-emergence action against VIOTR in % (Viola tricolor (VIOTR)): 80%; Pre-emergence action against LOLRI in % (Lolium rigidum (LOLRI) [9]): 80%; Pre-emergence action against AMARE in % [10]: 90%; Post-emergence action against AMARE in % ([11]; 80 g/ha, visual rating about 3 weeks after treatment vs untreated controls (100% = plants have died, 0% = like control plants)): 80% |
| 0% | 0% | 0% | 0% | – | 0% | 0% | 0% | 0% | 0% | 20% | – | COc1cccnc1-n1nc(OCC(=O)O)c(Br)c1-c1ccc(F)nc1 [Example I-363] | 80% | – | 80% | Pre-emergence action against GLXMA in % (Glycine max (GLXMA); 320 g/ha): 0% |
| 0% | 0% | 0% | 20% | 0% | 20% | 20% | 20% | 10% | 0% | 20% | 0% | CCOC(=O)COc1nn(-c2ncccc2OC)c(-c2ccc(F)nc2)c1Br [Example I-371] | – | 80% | 80% | Post-emergence action against SETVI in % (Setaria viridis (SETVI) [15]): 80%; Post-emergence action against LOLRI in % (Lolium rigidum (LOLRI) [16]): 90% |
| 0% | 0% | 0% | 0% | 0% | 0% | 0% | 0% | 10% | 0% | – | 20% | COc1cccnc1-n1nc(OCC(=O)O)c(Cl)c1-c1ccc(F)nc1 [Example I-329] | – | – | 80% | – |
